Paper PMC6440464 (PeerJ, 2019)
Several values for one entry are separate records, joined by “and”; a condition that tells them apart may be missing. Identical values can stand only once.

Test: Stability of the analytes in rat plasma QC samples at different storage conditions
Type: in vitro ADME
Settings: for Post-preparation stability (4℃ for 24 h) Measured Conc.: extracted plasma samples in auto sampler rack; for Post-preparation stability (4℃ for 24 h) Measured Conc. / Free-thaw stability (3 free-thaw cycles) Measured Conc. / Long-term stability (-80℃ for 15 d) Measured Conc. / Short-term stability (25℃ for 12 h) Measured Conc.: n=5; for Free-thaw stability, Test Conc., AV / Free-thaw stability, Test Conc. / Post-preparation stability, Test Conc., AV / Post-preparation stability, Test Conc. / Short-term stability, Test Conc., AV / Short-term stability, Test Conc. / Long-term stability, Test Conc., AV / Long-term stability, Test Conc.: plasma; for Free-thaw stability, Test Conc., AV / Free-thaw stability, Test Conc.: 3 free-thaw cycles; for Free-thaw stability, Test Conc., AV / Post-preparation stability, Test Conc., AV / Short-term stability, Test Conc., AV / Long-term stability, Test Conc., AV: AV of 5 replicates; for Free-thaw stability, Test Conc. / Post-preparation stability, Test Conc. / Short-term stability, Test Conc. / Long-term stability, Test Conc.: single replicates NO.1-NO.5; for Post-preparation stability, Test Conc., AV / Post-preparation stability, Test Conc.: 4℃ for 24 h; for Short-term stability, Test Conc., AV / Short-term stability, Test Conc.: 25℃ for 12 h; for Long-term stability, Test Conc., AV / Long-term stability, Test Conc.: -80℃ for 15 d; for Free-thaw stability (3 free-thaw cycles) Measured Conc. / Long-term stability (-80℃ for 15 d) Measured Conc. / Short-term stability (25℃ for 12 h) Measured Conc.: rat plasma
Procedure: The stabilities of Qr, IQ, and QG in plasma were assessed by analyzing QC samples at different storage conditions. The stabilities of three flavonoids in plasma were studied by analyzing three concentration levels of QC samples (n = 5) at room temperature (25 °C) for 12 h, at long-term storage (−80 °C for 15 days), after three freeze (−80 °C) and thaw (room temperature) cycles, and at auto sampler rack storage (4 °C for 24 h).

[1] = high QC, nominal 8400.0 (Qr), 976.0 (IQ), 10000.0 (QG) ng/mL
[2] = low QC, nominal 65.6 (Qr), 48.8 (IQ), 100.0 (QG) ng/mL
[3] = nominal Conc. 100.00 ng/mL, listed as Quercetin-3-O-β-D-glucuronide (QG)
[4] = nominal Conc. 1000.00 ng/mL, listed as Quercetin-3-O-β-D-glucuronide (QG)
[5] = nominal Conc. 10000.00 ng/mL, listed as Quercetin-3-O-β-D-glucuronide (QG)
[6] = medium QC, nominal 525.0 (Qr), 244.0 (IQ), 1000.0 (QG) ng/mL
[7] = nominal Conc. 65.63 ng/mL, listed as Quercetin (Qr)
[8] = nominal Conc. 525.00 ng/mL, listed as Quercetin (Qr)
[9] = nominal Conc. 8400.00 ng/mL, listed as Quercetin (Qr)

Compound: O=C(O)[C@H]1O[C@@H](Oc2c(-c3ccc(O)c(O)c3)oc3cc(O)cc(O)c3c2=O)[C@H](O)[C@@H](O)[C@@H]1O [QG, Quercetin-3-O-β-D-glucuronide]
- Post-preparation stability (4℃ for 24 h) Measured Conc. [1]: 9409.6 ± 569.5 ng/mL
- Post-preparation stability (4℃ for 24 h) Measured Conc. [2]: 97.2 ± 6.0 ng/mL
- Post-preparation stability (4℃ for 24 h) Measured Conc.: 910.7 ± 68.0 ng/mL
- Free-thaw stability, Test Conc., AV (nominal Conc. 100.00 ng/mL): 98.37 ng/mL
- Free-thaw stability, Test Conc. [3]: 105.25 ng/mL and 86.98 ng/mL and 102.05 ng/mL and 100.21 ng/mL and 97.34 ng/mL
- Free-thaw stability, Test Conc., AV (nominal Conc. 1000.00 ng/mL): 954.92 ng/mL
- Free-thaw stability, Test Conc. [4]: 860.30 ng/mL and 851.00 ng/mL and 988.40 ng/mL and 1022.10 ng/mL and 1052.80 ng/mL
- Free-thaw stability, Test Conc., AV (nominal Conc. 10000.00 ng/mL): 9353.20 ng/mL
- Free-thaw stability, Test Conc. [5]: 8753.00 ng/mL and 9439.00 ng/mL and 10058.00 ng/mL and 9832.00 ng/mL and 8684.00 ng/mL
- Post-preparation stability, Test Conc., AV (nominal Conc. 100.00 ng/mL): 97.18 ng/mL
- Post-preparation stability, Test Conc. [3]: 105.22 ng/mL and 101.31 ng/mL and 93.07 ng/mL and 95.83 ng/mL and 90.49 ng/mL
- Post-preparation stability, Test Conc., AV (nominal Conc. 1000.00 ng/mL): 910.72 ng/mL
- Post-preparation stability, Test Conc. [4]: 905.70 ng/mL and 890.50 ng/mL and 1027.40 ng/mL and 853.70 ng/mL and 876.30 ng/mL
- Post-preparation stability, Test Conc., AV (nominal Conc. 10000.00 ng/mL): 9409.60 ng/mL
- Post-preparation stability, Test Conc. [5]: 8728.00 ng/mL and 8919.00 ng/mL and 9825.00 ng/mL and 10046.00 ng/mL and 9530.00 ng/mL
- Short-term stability, Test Conc., AV (nominal Conc. 100.00 ng/mL): 89.29 ng/mL
- Short-term stability, Test Conc. [3]: 86.17 ng/mL and 83.32 ng/mL and 97.85 ng/mL and 94.48 ng/mL and 84.64 ng/mL
- Short-term stability, Test Conc., AV (nominal Conc. 1000.00 ng/mL): 943.20 ng/mL
- Short-term stability, Test Conc. [4]: 905.00 ng/mL and 917.50 ng/mL and 1029.40 ng/mL and 991.30 ng/mL and 872.80 ng/mL
- Short-term stability, Test Conc., AV (nominal Conc. 10000.00 ng/mL): 9334.60 ng/mL
- Short-term stability, Test Conc. [5]: 9717.00 ng/mL and 8935.00 ng/mL and 9106.00 ng/mL and 9353.00 ng/mL and 9562.00 ng/mL
- Long-term stability, Test Conc., AV (nominal Conc. 100.00 ng/mL): 98.57 ng/mL
- Long-term stability, Test Conc. [3]: 87.09 ng/mL and 91.05 ng/mL and 96.73 ng/mL and 107.32 ng/mL and 110.64 ng/mL
- Long-term stability, Test Conc., AV (nominal Conc. 1000.00 ng/mL): 941.48 ng/mL
- Long-term stability, Test Conc. [4]: 839.70 ng/mL and 1104.80 ng/mL and 874.40 ng/mL and 932.10 ng/mL and 956.40 ng/mL
- Long-term stability, Test Conc., AV (nominal Conc. 10000.00 ng/mL): 9985.00 ng/mL
- Long-term stability, Test Conc. [5]: 10543.00 ng/mL and 10195.00 ng/mL and 11086.00 ng/mL and 9530.00 ng/mL and 8571.00 ng/mL
- Free-thaw stability (3 free-thaw cycles) Measured Conc. [1]: 9353.2 ± 620.8 ng/mL
- Long-term stability (-80℃ for 15 d) Measured Conc. [1]: 9985.0 ± 971.4 ng/mL
- Short-term stability (25℃ for 12 h) Measured Conc. [1]: 9334.6 ± 320.2 ng/mL
- Free-thaw stability (3 free-thaw cycles) Measured Conc. [2]: 98.4 ± 7.0 ng/mL
- Long-term stability (-80℃ for 15 d) Measured Conc. [2]: 98.6 ± 10.2 ng/mL
- Short-term stability (25℃ for 12 h) Measured Conc. [2]: 89.3 ± 6.5 ng/mL
- Free-thaw stability (3 free-thaw cycles) Measured Conc. [6]: 954.9 ± 93.5 ng/mL
- Long-term stability (-80℃ for 15 d) Measured Conc. [6]: 941.5 ± 102.3 ng/mL
- Short-term stability (25℃ for 12 h) Measured Conc. [6]: 943.2 ± 64.9 ng/mL

Compound: O=c1c(O)c(-c2ccc(O)c(O)c2)oc2cc(O)cc(O)c12 [Qr, Quercetin]
- Post-preparation stability (4℃ for 24 h) Measured Conc. [1]: 7642.7 ± 675.6 ng/mL
- Post-preparation stability (4℃ for 24 h) Measured Conc. [2]: 61.0 ± 4.5 ng/mL
- Post-preparation stability (4℃ for 24 h) Measured Conc.: 526.3 ± 60.5 ng/mL
- Free-thaw stability, Test Conc., AV (nominal Conc. 65.63 ng/mL): 65.26 ng/mL
- Free-thaw stability, Test Conc. [7]: 66.42 ng/mL and 58.78 ng/mL and 57.77 ng/mL and 73.55 ng/mL and 69.78 ng/mL
- Free-thaw stability, Test Conc., AV (nominal Conc. 525.00 ng/mL): 511.91 ng/mL
- Free-thaw stability, Test Conc. [8]: 492.92 ng/mL and 484.10 ng/mL and 471.66 ng/mL and 550.36 ng/mL and 560.49 ng/mL
- Free-thaw stability, Test Conc., AV (nominal Conc. 8400.00 ng/mL): 8631.34 ng/mL
- Free-thaw stability, Test Conc. [9]: 7999.32 ng/mL and 7943.88 ng/mL and 8238.72 ng/mL and 9682.68 ng/mL and 9292.08 ng/mL
- Post-preparation stability, Test Conc., AV (nominal Conc. 65.63 ng/mL): 61.04 ng/mL
- Post-preparation stability, Test Conc. [7]: 58.85 ng/mL and 54.07 ng/mL and 64.70 ng/mL and 64.32 ng/mL and 63.25 ng/mL
- Post-preparation stability, Test Conc., AV (nominal Conc. 525.00 ng/mL): 526.26 ng/mL
- Post-preparation stability, Test Conc. [8]: 568.94 ng/mL and 459.48 ng/mL and 463.10 ng/mL and 552.93 ng/mL and 586.85 ng/mL
- Post-preparation stability, Test Conc., AV (nominal Conc. 8400.00 ng/mL): 7642.66 ng/mL
- Post-preparation stability, Test Conc. [9]: 6882.12 ng/mL and 7943.04 ng/mL and 7529.76 ng/mL and 8629.32 ng/mL and 7229.04 ng/mL
- Short-term stability, Test Conc., AV (nominal Conc. 65.63 ng/mL): 60.80 ng/mL
- Short-term stability, Test Conc. [7]: 57.16 ng/mL and 57.07 ng/mL and 64.40 ng/mL and 62.26 ng/mL and 63.12 ng/mL
- Short-term stability, Test Conc., AV (nominal Conc. 525.00 ng/mL): 474.02 ng/mL
- Short-term stability, Test Conc. [8]: 478.01 ng/mL and 472.87 ng/mL and 443.05 ng/mL and 442.10 ng/mL and 534.08 ng/mL
- Short-term stability, Test Conc., AV (nominal Conc. 8400.00 ng/mL): 7949.42 ng/mL
- Short-term stability, Test Conc. [9]: 8294.16 ng/mL and 7882.56 ng/mL and 8019.48 ng/mL and 7925.40 ng/mL and 7625.52 ng/mL
- Long-term stability, Test Conc., AV (nominal Conc. 65.63 ng/mL): 59.99 ng/mL
- Long-term stability, Test Conc. [7]: 54.24 ng/mL and 60.01 ng/mL and 62.03 ng/mL and 66.54 ng/mL and 57.14 ng/mL
- Long-term stability, Test Conc., AV (nominal Conc. 525.00 ng/mL): 500.71 ng/mL
- Long-term stability, Test Conc. [8]: 493.55 ng/mL and 501.01 ng/mL and 547.68 ng/mL and 448.04 ng/mL and 513.29 ng/mL
- Long-term stability, Test Conc., AV (nominal Conc. 8400.00 ng/mL): 7982.86 ng/mL
- Long-term stability, Test Conc. [9]: 7842.24 ng/mL and 9005.64 ng/mL and 8321.88 ng/mL and 7922.88 ng/mL and 6821.64 ng/mL
- Free-thaw stability (3 free-thaw cycles) Measured Conc. [1]: 8631.3 ± 801.3 ng/mL
- Long-term stability (-80℃ for 15 d) Measured Conc. [1]: 7982.9 ± 795.7 ng/mL
- Short-term stability (25℃ for 12 h) Measured Conc. [1]: 7949.4 ± 241.7 ng/mL
- Free-thaw stability (3 free-thaw cycles) Measured Conc. [2]: 65.3 ± 6.9 ng/mL
- Long-term stability (-80℃ for 15 d) Measured Conc. [2]: 60.0 ± 4.7 ng/mL
- Short-term stability (25℃ for 12 h) Measured Conc. [2]: 60.8 ± 3.5 ng/mL
- Free-thaw stability (3 free-thaw cycles) Measured Conc. [6]: 511.9 ± 40.6 ng/mL
- Long-term stability (-80℃ for 15 d) Measured Conc. [6]: 500.7 ± 36.0 ng/mL
- Short-term stability (25℃ for 12 h) Measured Conc. [6]: 474.0 ± 37.4 ng/mL
